Values of other authors in US11696905B2, “Ready-to-use tranexamic acid intravenous solution” (Boulevard Patience et Beaujonc Nº3/1, priority 2018, dated 2023).

Experiments:
[1] = oral administration
[2] = four doses of 10-20 mg per kg body weight 36-48 hours before surgery

- time antifibrinolytically active concentration remained in the serum [2]: 7 to 8 h
- time antifibrinolytically active concentration remained in the tissues investigated [2]: up to 17 hours
- absorption from the human gastrointestinal tract [1]: 40%
Structure (SMILES): NC[C@H]1CC[C@H](C(=O)O)CC1 [Tranexamic acid, trans-4-(aminomethyl)cyclohexanecarboxylic acid]
- antifibrinolytically active concentration (in vivo): 10 µg/mL
